Measurements from patent US20210199640A1, “Methods of Normalizing Aberrant Glycolytic Metabolism in Cancer Cells” (The Board of Trustees of the Leland Stanford Junior …, priority 2019, published 2021).

Tested on: PKM2
Assay: [18F]DASA-23 cellular uptake as measure of PKM2 expression in U87 GBM cells
Format: cell-based, Human
Procedure: [18F]DASA-23 can be used to detect changes in GBM metabolism in response to TMZ and TTFields therapies. In one experiment, Human U87 GBM cells were subjected to 200 kHz TTFields, the IC50 of TMZ, or vehicle for three or six days (n≥3/condition), followed by evaluation of [18F]DASA-23 uptake (e.g., FIGS. 2 and 6). Immunofluorescence for PKM2 was performed to confirm the [18F]DASA-23 uptake results. (e.g., FIG. 9). Western blot analysis was performed to determine the effect of TMZ and TTFields exposure on the expression of PKM2. 2-way ANOVA with multiple comparisons was performed. (e.g., FIG. 8). Data are reported as mean±SD.
The ability of [18F]DASA-23 to detect changes in metabolism in response to TMZ and TTFields therapies, in cell culture and an orthotopic murine model of human GBM (FIG. 6) was evaluated. There was a significant interaction between the treatment (vehicle, TMZ, or TTFields) and treatment duration (3 or 6 days) on PKM2 expression as measured by cellular uptake of [18F]DASA-23 (p=0.005, 2-way ANOVA) (FIG. 6).

[1] = U87 cells, after exposure to TTFields, over 60 minutes, FIG. 7

| SMILES | reduction of [18F]DASA-23 uptake (U87 cells, after exposure to TTFields, over 30 minutes, FIG. 7) | reduction of [18F]DASA-23 retention [1] | reduction of [18F]DASA-23 uptake [1] | reduction of PKM2 expression (U87 glioblastoma cells, over a 30 minute period, after treatment with chemotherapy (TMZ), FIG. 6) |
| --- | --- | --- | --- | --- |
| COc1ccc(S(=O)(=O)N2CCN(S(=O)(=O)c3c(F)cccc3[18F])CC2)cc1 [[18F]DASA-23, 1-((2-fluoro-6-[18F]fluorophenyl)sulfonyl)-4-((4-methoxyphenyl)sulfonyl)piperazine] | at least 5% | at least 20% | at least 10% |  |
| Cn1nnc2c(C(N)=O)ncn2c1=O [TMZ, Temozolomide] |  |  |  | at least 10% |
